From patent publication EP1070068B2, “GRANULATIMIDE DERIVATIVES FOR USE IN CANCER TREATMENT” (THE UNIVERSITY OF BRITISH COLUMBIA, priority 1998, dated 1999)
Where two headings read alike, the source gives them in different places.

What was measured:
[1] = test system: MCF-7 mp53 cells; assay: G2 checkpoint inhibition assay (TG-3 ELISA of mitotic cells after γ-irradiation, with nocodazole); format: cell-based; conditions: concentration of 0.1-30 µM
[2] = test system: MCF-7 mp53 cells; assay: as above; format: cell-based; conditions: for IC50: Homo sapiens
Description: G2 Checkpoint Inhibitor Assay: The G2 checkpoint inhibitor assay described herein involves treating cells, e. g. cells associated with a hyperproliferative disorder, including cancer cells, with a DNA damaging agent under conditions whereby arrest of the cells at G2 will be induced. A sample to be tested for G2 checkpoint inhibition activity and an agent which arrests cells in mitosis are applied to the cells, following which it is determined whether the G2 checkpoint is overcome and the cells enter mitosis. Release of the cells from arrest at G2 or prevention of arrest at G2, such that the cells proceed to mitosis, is the indicator of G2 checkpoint inhibition activity.
MCF-7 mp53 cells (mutant for p53) were cultured as monolayers in DMEM supplemented with 10% fetal bovine serum, 2 mM L-glutamine, 50 units/ml penicillin, 50 µg/ml streptomycin, 1 mM sodium pyruvate, MEM non-essential amino acids, 1 µg/ml bovine insulin, 1 µg/ml hydrocortisone, 1 ng/ml human epidermal growth factor, and 1 ng/ml β-estradiol at 37°C in humidified 5% CO2. The cells were seeded at 10,000 cells per well of 96-well polystyrene tissue culture plates (Falcon) in 100 µl medium. The cells were allowed to grow for 24 hours and then were irradiated with 6.5 Gy using a ^60Co source (Gammacell 200™, Atomic Energy Commission of Canada) delivering γ-rays at a dose rate of 1.4 Gy/min.
Extracts from marine organisms at about 10µg/ml (from 1000-fold stocks in DMSO) and 100 ng/ml nocodazole (Sigma, from a 1000-fold stock in DMSO) were added 16 hours after irradiation and the cells were incubated for a further 8 hours.
After drug treatment, the cell culture medium was removed and the cells were lysed by adding 100 µl of ice-cold lysis buffer (1 mM EGTA pH 7.4, 0.2 mM PMSF) and pipeting up-and-down 10 times. The cell lysates were transferred to 96-well PolySorp™ plates (Nunc) and dried completely by blowing warm air at about 37°C with a hair dryer positioned about 3 feet above plates. […] This was removed and replaced with 100 µl antibody buffer containing 0.1-0.15 µg/ml TG-3 monoclonal antibody and horseradish peroxidase-labelled goat anti-mouse IgM (Southern Biotechnology Associates) at a dilution of 1/500.
After overnight incubation at 4°C, the antibody solution was removed and the wells were rinsed 3 times with 200 µl 10 mM Tris HCl pH 7.4, 0.02% Tween 20™.

[3] = target: CDK1 (Homo sapiens, UniProt P06493); assay: Protein kinase inhibition assay (γ-32P ATP); format: biochemical; conditions: room temperature, 15 minutes
Chain of CDK1 (P06493 whole entry, species assumed): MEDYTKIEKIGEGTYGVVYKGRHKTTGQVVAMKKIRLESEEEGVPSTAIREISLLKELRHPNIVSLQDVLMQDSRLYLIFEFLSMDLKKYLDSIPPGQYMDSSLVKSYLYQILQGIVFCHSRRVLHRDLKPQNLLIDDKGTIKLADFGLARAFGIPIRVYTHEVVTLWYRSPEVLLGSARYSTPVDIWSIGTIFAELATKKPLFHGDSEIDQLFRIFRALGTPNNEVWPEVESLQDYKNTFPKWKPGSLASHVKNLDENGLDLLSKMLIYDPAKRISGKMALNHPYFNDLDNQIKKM
Chain of CDK1 (P14635 whole entry partner, species assumed): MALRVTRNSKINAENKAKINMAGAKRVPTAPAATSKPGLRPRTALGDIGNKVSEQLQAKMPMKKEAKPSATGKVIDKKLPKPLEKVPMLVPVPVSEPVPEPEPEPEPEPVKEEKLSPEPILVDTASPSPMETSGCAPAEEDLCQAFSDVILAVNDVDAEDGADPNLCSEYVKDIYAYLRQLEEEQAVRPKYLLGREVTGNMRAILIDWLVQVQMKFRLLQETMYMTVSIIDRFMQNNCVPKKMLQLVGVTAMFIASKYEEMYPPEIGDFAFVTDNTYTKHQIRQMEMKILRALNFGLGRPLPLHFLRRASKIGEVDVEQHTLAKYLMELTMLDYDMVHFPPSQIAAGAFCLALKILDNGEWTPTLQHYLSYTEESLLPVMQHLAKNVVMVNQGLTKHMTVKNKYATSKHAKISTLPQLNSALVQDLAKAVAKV
Description: (§1) 100% DMSO was used as a negative control.
(§2) Kinase reactions are performed at room temperature. The reaction mixture contains diluted test compound, the protein kinase, substrate and γ-^32P ATP. The mixture is incubated for 15 minutes, and the reaction mix spotted, and counted.

[4] = target: GSK3b (Homo sapiens, UniProt P49841); assay: Protein kinase inhibition assay (γ-32P ATP, peptide substrate); format: biochemical; conditions: room temperature, 15 minutes
Chain of GSK3b (P49841 whole entry, species assumed): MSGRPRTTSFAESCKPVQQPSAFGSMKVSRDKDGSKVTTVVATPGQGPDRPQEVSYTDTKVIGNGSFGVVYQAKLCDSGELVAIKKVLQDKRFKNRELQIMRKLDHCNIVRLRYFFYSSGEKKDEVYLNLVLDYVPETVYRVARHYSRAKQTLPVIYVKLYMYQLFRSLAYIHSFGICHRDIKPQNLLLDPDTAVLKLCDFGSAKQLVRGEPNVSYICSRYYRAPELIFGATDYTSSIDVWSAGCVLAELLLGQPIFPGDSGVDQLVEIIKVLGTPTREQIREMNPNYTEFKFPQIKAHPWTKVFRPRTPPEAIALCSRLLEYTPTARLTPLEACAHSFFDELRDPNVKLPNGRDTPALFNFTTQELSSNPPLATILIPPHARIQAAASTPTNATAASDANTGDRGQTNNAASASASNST
Description: (§3) The GSK3β peptide substrate used was […] (PO4H2)EDEE-amide. The ILK1 substrate is […]-amide.
as §1, §2

[5] = target: T1, ILK1 (Homo sapiens, UniProt Q13418); assay: as above; format: biochemical; conditions: room temperature, 15 minutes
T1 sequence (Q13418 1-452): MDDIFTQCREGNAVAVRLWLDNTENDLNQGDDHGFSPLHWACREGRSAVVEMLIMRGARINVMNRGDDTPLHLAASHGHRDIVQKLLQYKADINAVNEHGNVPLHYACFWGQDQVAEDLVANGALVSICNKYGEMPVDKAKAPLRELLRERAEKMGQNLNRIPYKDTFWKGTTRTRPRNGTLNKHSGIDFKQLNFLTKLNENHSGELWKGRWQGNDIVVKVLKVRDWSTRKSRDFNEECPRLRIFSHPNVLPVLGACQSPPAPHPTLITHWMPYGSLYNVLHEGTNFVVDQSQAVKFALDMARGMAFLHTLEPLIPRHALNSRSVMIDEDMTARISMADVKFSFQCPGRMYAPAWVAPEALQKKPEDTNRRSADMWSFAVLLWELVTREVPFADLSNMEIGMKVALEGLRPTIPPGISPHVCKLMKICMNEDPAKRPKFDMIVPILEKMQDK
Description: as §3, §1, §2

[6] = Solubility in organic solvents; format: physicochemical
[7] = test system: MCF-7 cells; assay: Cell survival, soluble tetrazolium salt assay with γ-irradiation, p53+ cells; format: cell-based; conditions: MCF-7 cells (Figure 1C)
[8] = test system: MCF-7 mp53 cells
[9] = in vitro; conditions: human
[10] = test system: p53-MCF-7 cells; conditions: cited from earlier work
[11] = test system: p53- A549 human lung adenocarcinoma cells; conditions: cited from earlier work
[12] = MCF7, Table 2, read-out: IC50 G2 checkpoint
[13] = MCF7, light or radiation study, MCF-7 mp53 cells irradiated with 6.5 Gy, read-out: half-maximal G2 checkpoint inhibition (IC50)

Compound	IC50 [2, 12]	IC50 [3]	IC50 [4]	IC50 [5]	IC50 [2, 13]	further results
O=C1NC(=O)C(c2c[nH]c3ccccc23)=C1c1cnc[nH]1 [Didemnimide A]	–	–	–	–	–	G2 checkpoint inhibition activity [1]: no activity
O=C1NC(=O)c2c1c1[nH]cnc1c1[nH]c3ccccc3c21 [Granulatimide]	1.3 µM	2000 nM	2000 nM	> 50 µM	–	IC50 ([2]; MCF7, Figure 2, read-out: G2 checkpoint inhibitor IC50): 1.3 µM; solubility ([6]; DMF or DMSO): soluble; solubility ([6]; most common organic solvents including ethanol and methanol): very insoluble
O=C1NC(=O)c2c1c1c3ccccc3[nH]c1n1cncc21 [Isogranulatimide]	1.8 µM	–	500 nM	> 50 µM	1.8 ± 0.2 µM	synergy with irradiation in killing p53+ cells [7]: does not kill p53+ cells synergistically; reduction of the IC50 for cytotoxicity when cells were irradiated [8]: 5 fold; synergy with γ-irradiation in killing p53- cells ([8]; 2, 4 or 6 Gy, 16 hours for isogranulatimide): acted synergistically; IC50 at 16 h [9]: 40 ± 4 µM
CC(=O)CCCCn1c(=O)c2c(ncn2C)n(C)c1=O [Pentoxifylline]	–	–	–	–	–	enhancement of cisplatin induced killing [10]: 30 fold; enhancement of radiation induced killing [11]: 5 fold
Cn1c(=O)c2c(ncn2C)n(C)c1=O [caffeine, reference compound]	–	–	–	–	–	IC50 ([2]; MCF7, comparison compound, read-out: IC50 for G2 checkpoint inhibition): 1000 µM; absorbance readings at 405 nm ([2]; positive control, 2 mM): about 1.0
O=C1NC(=O)c2c1c1c3ccccc3[nH]c1c1nccn21 [compound 40]	> 100 µM	> 50000 nM	25000 nM	> 50 µM	> 100 µM	–
O=C1NC(=O)c2c1c1c3ccccc3[nH]c1c1cncn21 [compound 50]	1 µM	500 nM	100 nM	15 µM	1 µM	–
O=C1NC(=O)c2c1c1c3ccccc3[nH]c1n1ccnc21 [compound 60]	6 µM	17000 nM	5000 nM	> 50 µM	2 µM	–
